Results taken from US9394238B2, “Process for the production of carnitine from β-lactones” (Lonza Ltd., priority 2010, dated 2016).

Key:
[1] = Ames-Test (mutagenicity)
[2] = tested on: rat; assay: Acute toxicity LD50 in rat; type: in vivo

Question: With `O=C(O)/C=C/CO` [hydroxycrotonic acid] as the compound, how does the Ames-Test [1] read?
Answer: negative

Question: What about the “LD50 (rat)” value [2] of the same compound?
Answer: > 2000 mg/kg bw
